The record followed here is ChEMBL document CHEMBL1201862, “PubChem BioAssay data set” (2004).

Molecules are shown by their SMILES. The source made the active and inactive calls.

Test [1] concerns the target Eukaryotic translation initiation factor 4H (Homo sapiens, UniProt Q15056). Nature of the test: inhibitors of translation initiation factor eIF4H – SAR follow-up (AID 435011). The format is functional.
Test [2] deals with Polyadenylate-binding protein 1 (Homo sapiens, UniProt P11940). The experiment in a line: PABP inhibition in translation initiation, SAR follow-up (AID 435018). The format is functional.
Sequence of Polyadenylate-binding protein 1 (P11940 whole entry): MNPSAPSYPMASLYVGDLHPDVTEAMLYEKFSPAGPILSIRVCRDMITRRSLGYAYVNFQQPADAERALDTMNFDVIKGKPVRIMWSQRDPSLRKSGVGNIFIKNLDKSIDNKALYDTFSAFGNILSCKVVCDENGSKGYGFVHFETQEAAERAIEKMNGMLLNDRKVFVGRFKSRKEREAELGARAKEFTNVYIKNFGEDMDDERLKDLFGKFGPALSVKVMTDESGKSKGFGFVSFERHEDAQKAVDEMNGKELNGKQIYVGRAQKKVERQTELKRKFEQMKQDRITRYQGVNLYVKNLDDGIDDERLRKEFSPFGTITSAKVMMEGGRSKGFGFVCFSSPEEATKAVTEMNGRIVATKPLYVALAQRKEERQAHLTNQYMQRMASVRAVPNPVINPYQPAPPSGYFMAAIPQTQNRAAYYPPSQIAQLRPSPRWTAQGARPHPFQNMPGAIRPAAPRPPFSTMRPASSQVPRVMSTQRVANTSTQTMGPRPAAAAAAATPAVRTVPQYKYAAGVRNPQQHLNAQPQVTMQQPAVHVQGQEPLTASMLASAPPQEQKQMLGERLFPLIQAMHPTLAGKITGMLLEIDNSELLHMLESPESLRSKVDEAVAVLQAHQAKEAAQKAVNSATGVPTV
Test [3] concerns HEK293. The experiment in a line: inhibition of NOD1-driven NF-kB reporter – cell-based, luminescence, uHTS, primary screen (AID 1578). The format is functional. As to conditions: Homo sapiens.
In test [4] the test system is HEK293. Nature of the test: cells. The format is functional, cell-based. The conditions noted are these: Homo sapiens.
Test [5] relates to HEK293. Nature of the test: cells. Type of test: functional, cell-based. The conditions noted are these: Homo sapiens. The source holds these as a separate data set.
For test [6], the system named is HEK293. The experiment in a line: NOD2 signaling inhibitors in MDP-stimulated cells, cell-based, uHTS, luminescence (AID 2001). Type of test: functional. As to conditions: Homo sapiens.
In the next test the target is Tumor necrosis factor (Homo sapiens, UniProt P01375). The experiment in a line: analog potency on TNFa NF-kB signaling – cell-based, revised, SAR follow-up (AID 2337). The format is functional.
Test [7] has as its target T1, Nucleotide-binding oligomerization domain-containing protein 1 (Homo sapiens, UniProt Q9Y239).
T1 sequence (Q9Y239 whole entry): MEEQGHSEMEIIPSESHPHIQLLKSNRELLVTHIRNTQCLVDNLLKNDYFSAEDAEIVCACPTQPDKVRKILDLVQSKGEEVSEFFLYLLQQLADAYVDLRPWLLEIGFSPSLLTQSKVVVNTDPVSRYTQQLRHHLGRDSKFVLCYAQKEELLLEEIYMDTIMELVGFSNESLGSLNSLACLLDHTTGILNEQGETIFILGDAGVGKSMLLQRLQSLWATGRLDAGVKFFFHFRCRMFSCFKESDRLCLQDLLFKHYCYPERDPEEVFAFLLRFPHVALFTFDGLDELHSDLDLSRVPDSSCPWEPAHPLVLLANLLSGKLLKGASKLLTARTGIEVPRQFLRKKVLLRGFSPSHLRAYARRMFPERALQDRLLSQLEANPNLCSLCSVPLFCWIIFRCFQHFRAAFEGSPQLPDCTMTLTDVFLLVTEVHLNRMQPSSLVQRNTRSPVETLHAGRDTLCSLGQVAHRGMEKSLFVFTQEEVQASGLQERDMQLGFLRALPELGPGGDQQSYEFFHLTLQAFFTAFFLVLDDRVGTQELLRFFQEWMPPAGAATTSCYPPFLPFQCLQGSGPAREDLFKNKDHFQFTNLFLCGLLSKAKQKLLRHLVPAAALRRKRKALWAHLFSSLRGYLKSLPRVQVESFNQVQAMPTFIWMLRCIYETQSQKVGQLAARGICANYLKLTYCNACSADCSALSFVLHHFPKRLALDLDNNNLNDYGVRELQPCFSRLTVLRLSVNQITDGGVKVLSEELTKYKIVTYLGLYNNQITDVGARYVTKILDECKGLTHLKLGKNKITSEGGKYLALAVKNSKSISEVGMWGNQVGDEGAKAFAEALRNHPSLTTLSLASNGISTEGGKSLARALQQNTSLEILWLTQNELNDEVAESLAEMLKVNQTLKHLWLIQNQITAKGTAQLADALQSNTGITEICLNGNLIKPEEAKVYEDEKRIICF
The experiment in a line: blockers of NOD1 pathway activity – revised, SAR follow-up (AID 2333). Type of test: functional.

Test [8] has as its system HEK293. Nature of the test: cells. As to conditions: Homo sapiens.
Test [9] in a line: cells. The format is functional, cell-based.
Test [10] concerns the target Nucleotide-binding oligomerization domain-containing protein 2 (Homo sapiens, UniProt Q9HC29). Nature of the test: inhibition of NOD2-driven NF-kB reporter – cell-based, luminescence, uHTS, HEK293 (AID 1566). The format is functional.
For test [11], the system named is HEK293. Nature of the test: cells. The conditions noted are these: Homo sapiens. Type of test: functional, cell-based. The source holds these as a separate data set.
The nature of test [12]: cells. Type of test: functional, cell-based. The source holds these as a separate data set.
For another test, the system named is INS1. Nature of the test: INS-1E survival protection against cytokine death – cell-based, luminescence, retest, dose response (AID 449756).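 Further: cell death triggered by IL-1 beta plus TNF-alpha plus IFN-gamma mixture; protective hits raise ATP signal compared with cytokine alone wells.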 The conditions noted are these: Rattus norvegicus. Type of test: functional.
In the next test the target is SUMO-activating enzyme (Homo sapiens, UniProt Q9UBT2). The experiment in a line: blockers of UBC9-mediated SUMO conjugation – biochemical, AlphaScreen, SUMOylation inhibitor project, confirmation (AID 2018). Type of test: functional.
Test [13] is described as follows: Luminescence Cell-Based Dose Retest to Confirm Inhibitors of Cancer Stem Cells. [Related pubchem assays (depositor defined):AID2717, AID2721]. The format is functional. The conditions noted are these: Homo sapiens.
The target in test [14] is T2, Kappa-type opioid receptor (Homo sapiens, UniProt P41145). Type of test: functional.
T2 sequence (P41145 whole entry): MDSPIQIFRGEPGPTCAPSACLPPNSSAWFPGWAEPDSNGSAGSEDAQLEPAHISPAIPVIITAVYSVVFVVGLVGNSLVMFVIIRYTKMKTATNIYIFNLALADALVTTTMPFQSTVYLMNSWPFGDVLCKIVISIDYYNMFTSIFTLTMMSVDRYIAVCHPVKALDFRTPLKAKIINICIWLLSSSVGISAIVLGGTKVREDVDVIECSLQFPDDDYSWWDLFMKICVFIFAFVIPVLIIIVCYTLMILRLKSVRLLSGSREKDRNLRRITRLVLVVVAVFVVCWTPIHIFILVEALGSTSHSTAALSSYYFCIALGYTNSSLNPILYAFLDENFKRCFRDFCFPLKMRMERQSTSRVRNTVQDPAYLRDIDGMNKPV
For another test, the target named is Beta-galactosidase (Escherichia coli, UniProt Q8VNN2). Type of test: functional.
For test [15], the target named is T2, Kappa-type opioid receptor. Type of test: functional. This is another data set of the same source.
The target in a further test is T3, Protein skinhead-1 (Caenorhabditis elegans, UniProt P34707).
T3 sequence (P34707 whole entry): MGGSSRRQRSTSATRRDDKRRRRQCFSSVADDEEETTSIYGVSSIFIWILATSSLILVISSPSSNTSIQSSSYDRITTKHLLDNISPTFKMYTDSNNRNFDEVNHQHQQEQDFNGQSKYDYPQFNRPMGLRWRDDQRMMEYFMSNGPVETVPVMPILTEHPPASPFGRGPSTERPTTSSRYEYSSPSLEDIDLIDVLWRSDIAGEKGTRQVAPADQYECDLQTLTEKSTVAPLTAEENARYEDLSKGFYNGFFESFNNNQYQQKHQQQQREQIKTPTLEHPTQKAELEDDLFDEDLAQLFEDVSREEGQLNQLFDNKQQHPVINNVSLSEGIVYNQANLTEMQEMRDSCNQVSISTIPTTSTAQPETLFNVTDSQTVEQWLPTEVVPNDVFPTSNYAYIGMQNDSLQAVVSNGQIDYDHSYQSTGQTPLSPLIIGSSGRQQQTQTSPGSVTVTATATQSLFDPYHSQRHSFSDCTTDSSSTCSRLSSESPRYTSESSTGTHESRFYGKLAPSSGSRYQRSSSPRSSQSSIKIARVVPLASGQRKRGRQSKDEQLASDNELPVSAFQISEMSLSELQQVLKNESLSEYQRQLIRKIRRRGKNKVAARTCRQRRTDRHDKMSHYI
Type of test: functional.

The target in test [16] is Peroxisome proliferator-activated receptor gamma/Nuclear receptor coactivator 1 (Homo sapiens, UniProt P37231). Nature of the test: TR-FRET dose response biochemical High Throughput Screening assay for agonists of the steroid receptor coactivator 1 (SRC-1) recruitment by the peroxisome proliferator-activated receptor gamma (PPAR gamma): non-selective agonists. [Related pubchem assays (depositor defined):AID1300, AID1808, AID504735, AID631]. Type of test: protein assay.
Sequence of Peroxisome proliferator-activated receptor gamma/Nuclear receptor coactivator 1 (P37231 whole entry): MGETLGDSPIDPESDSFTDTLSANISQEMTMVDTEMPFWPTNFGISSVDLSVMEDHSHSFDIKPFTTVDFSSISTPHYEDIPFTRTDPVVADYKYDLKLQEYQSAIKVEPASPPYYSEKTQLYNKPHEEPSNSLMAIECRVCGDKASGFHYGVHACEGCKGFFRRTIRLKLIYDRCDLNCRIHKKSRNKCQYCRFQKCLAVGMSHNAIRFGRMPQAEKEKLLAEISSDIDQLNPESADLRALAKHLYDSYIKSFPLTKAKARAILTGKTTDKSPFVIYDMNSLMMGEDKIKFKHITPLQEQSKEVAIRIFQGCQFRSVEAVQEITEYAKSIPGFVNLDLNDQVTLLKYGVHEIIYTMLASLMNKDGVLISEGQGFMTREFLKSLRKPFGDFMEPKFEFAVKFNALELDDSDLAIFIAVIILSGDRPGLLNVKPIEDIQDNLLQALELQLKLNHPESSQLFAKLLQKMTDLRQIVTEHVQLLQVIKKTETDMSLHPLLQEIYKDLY
Sequence of Peroxisome proliferator-activated receptor gamma/Nuclear receptor coactivator 1 (Q15788 whole entry, further chain): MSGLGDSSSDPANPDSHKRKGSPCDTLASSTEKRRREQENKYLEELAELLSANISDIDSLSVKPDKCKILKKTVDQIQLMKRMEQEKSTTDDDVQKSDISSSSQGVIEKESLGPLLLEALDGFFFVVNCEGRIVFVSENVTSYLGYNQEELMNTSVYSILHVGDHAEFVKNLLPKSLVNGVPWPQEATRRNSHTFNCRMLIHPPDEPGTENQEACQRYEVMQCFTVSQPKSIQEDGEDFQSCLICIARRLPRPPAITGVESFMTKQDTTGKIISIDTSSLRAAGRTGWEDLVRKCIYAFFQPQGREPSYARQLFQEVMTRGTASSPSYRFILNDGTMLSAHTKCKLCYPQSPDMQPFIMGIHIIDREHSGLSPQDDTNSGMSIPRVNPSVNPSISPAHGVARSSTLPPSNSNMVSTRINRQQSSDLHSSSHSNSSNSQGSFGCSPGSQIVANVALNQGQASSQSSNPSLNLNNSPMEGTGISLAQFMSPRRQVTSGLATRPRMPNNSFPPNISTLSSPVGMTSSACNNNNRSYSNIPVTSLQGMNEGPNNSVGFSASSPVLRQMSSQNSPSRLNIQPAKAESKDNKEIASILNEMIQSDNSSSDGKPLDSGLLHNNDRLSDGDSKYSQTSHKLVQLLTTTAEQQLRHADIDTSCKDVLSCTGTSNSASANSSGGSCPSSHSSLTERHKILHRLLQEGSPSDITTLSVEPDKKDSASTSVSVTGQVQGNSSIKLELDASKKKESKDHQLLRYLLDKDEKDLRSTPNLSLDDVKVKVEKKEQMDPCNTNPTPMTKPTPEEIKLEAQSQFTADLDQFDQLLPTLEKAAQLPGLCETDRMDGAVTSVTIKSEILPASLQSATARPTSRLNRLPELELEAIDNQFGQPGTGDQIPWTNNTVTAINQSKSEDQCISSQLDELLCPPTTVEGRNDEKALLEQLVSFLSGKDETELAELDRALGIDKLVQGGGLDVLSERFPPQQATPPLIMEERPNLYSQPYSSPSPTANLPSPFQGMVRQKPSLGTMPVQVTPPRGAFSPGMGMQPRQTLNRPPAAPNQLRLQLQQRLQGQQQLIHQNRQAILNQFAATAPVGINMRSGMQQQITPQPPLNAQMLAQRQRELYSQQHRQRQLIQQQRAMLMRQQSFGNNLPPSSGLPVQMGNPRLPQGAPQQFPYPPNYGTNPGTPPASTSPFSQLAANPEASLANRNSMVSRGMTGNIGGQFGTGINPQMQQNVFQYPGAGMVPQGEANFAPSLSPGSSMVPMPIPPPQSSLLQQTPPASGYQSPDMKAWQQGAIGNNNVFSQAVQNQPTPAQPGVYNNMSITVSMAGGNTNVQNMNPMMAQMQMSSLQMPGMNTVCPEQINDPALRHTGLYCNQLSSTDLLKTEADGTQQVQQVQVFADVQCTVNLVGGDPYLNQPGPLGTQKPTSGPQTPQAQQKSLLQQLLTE

For test [17], the target named is Peroxisome proliferator-activated receptor gamma/Nuclear receptor coactivator 3 (Homo sapiens, UniProt P37231). Nature of the test: TR-FRET dose response biochemical High Throughput Screening assay for agonists of the steroid receptor coactivator 3 (SRC-3) recruitment by the peroxisome proliferator-activated receptor gamma (PPAR gamma): non-selective agonists. [Related pubchem assays: 1301 (Confirmation screen.), 1048 (Primary screen.)]. Type of test: functional.
Sequence of Peroxisome proliferator-activated receptor gamma/Nuclear receptor coactivator 3 (P37231 whole entry): as the sequence (P37231 whole entry) above
Sequence of Peroxisome proliferator-activated receptor gamma/Nuclear receptor coactivator 3 (Q9Y6Q9 whole entry, further chain): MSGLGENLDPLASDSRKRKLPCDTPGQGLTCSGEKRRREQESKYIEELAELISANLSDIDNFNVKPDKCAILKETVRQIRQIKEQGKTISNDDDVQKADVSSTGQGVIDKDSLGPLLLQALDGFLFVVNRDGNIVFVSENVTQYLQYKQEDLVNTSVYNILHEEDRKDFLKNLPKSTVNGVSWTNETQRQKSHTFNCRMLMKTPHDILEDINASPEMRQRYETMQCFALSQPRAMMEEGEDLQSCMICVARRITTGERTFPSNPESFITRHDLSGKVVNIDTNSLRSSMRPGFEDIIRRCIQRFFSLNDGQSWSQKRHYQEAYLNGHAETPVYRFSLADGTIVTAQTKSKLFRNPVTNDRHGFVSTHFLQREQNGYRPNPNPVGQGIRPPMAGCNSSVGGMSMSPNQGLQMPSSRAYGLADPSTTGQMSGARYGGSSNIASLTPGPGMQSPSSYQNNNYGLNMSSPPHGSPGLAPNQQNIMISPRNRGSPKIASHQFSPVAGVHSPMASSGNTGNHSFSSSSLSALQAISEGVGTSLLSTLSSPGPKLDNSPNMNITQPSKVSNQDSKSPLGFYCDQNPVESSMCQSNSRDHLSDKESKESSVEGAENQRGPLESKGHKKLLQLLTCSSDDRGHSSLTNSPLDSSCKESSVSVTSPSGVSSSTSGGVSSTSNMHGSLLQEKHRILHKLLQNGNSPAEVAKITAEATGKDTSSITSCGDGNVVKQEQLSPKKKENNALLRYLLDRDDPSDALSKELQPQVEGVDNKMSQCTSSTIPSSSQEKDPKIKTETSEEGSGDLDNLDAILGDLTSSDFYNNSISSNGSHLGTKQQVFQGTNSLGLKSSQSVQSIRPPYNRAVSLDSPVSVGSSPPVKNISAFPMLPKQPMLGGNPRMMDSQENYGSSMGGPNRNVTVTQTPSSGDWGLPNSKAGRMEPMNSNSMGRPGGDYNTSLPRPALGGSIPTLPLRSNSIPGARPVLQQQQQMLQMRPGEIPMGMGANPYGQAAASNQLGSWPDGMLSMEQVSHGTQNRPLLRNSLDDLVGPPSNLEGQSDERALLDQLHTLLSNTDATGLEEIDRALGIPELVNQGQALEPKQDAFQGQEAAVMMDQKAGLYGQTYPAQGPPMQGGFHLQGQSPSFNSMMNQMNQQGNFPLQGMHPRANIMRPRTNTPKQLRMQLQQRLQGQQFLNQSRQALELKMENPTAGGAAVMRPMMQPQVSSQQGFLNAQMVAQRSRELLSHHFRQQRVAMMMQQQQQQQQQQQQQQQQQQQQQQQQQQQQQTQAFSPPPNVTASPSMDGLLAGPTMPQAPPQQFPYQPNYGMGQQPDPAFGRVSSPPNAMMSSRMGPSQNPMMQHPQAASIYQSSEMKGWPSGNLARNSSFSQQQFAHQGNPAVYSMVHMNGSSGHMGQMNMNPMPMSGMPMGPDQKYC

Test [18] has as its target Peroxisome proliferator-activated receptor gamma/Nuclear receptor coactivator 2 (Homo sapiens, UniProt P37231). Nature of the test: TR-FRET dose response biochemical High Throughput Screening assay for agonists of the steroid receptor coactivator 2 (SRC-2) recruitment by the peroxisome proliferator-activated receptor gamma (PPAR gamma): non-selective agonists. [Related pubchem assays: 1297, 1032 ]. Type of test: functional. In general terms: In TR-FRET formats the signal depends on donor and acceptor labels being close together.

The target in a further test is Nonstructural protein 1 (Influenza A virus, UniProt Q194T2). The format is functional, Influenza A virus (A/California/07/2009(H1N1)).
In test [19] the target is Heat shock protein HSP 90-alpha (Homo sapiens, UniProt P07900). Type of test: functional, organism-based.
A further test has as its system BJ. Nature of the test: growth inhibition of engineered Ras-driven BJ cells – cell-based, alamar blue fluorescence, cherrypicked samples, dose response (AID 2631).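 Further: confirmatory dose-response assay in RAS-dependent BJ fibroblasts engineered with TERT, LT and ST, with cytotoxicity read by fluorescence.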 Type of test: functional. The conditions noted are these: Homo sapiens. Background: Resazurin is reduced to fluorescent resorufin, in cell work by metabolically active cells.
The target in test [20] is T4, Rac GTPase-activating protein 1 (Homo sapiens, UniProt Q9H0H5).
T4 sequence (Q9H0H5 whole entry): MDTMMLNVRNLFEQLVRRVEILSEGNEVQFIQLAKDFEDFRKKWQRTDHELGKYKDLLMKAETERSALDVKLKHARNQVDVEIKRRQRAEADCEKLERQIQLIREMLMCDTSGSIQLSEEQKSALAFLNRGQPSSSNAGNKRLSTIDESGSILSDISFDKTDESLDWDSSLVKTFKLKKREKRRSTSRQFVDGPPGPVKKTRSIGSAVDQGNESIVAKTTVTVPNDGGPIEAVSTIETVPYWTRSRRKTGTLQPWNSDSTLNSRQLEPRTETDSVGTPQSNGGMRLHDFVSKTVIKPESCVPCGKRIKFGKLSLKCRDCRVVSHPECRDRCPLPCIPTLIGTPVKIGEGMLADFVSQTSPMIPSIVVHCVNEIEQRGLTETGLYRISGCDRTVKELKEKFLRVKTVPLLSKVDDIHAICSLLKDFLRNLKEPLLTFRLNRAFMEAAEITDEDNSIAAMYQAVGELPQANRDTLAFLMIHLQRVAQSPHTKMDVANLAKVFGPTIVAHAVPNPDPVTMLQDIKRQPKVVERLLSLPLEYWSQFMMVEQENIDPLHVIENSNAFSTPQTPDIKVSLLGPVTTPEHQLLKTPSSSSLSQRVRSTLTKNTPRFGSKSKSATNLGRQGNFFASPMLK
Nature of the test: blockers of MgcRacGAP-driven Rac1 GTP hydrolysis – biochemical, ADP Hunter fluorescence, primary and confirmatory, confirmation (AID 624330). Type of test: functional.

Usually IC50 stands for the concentration needed to halve the response being measured. What is called EC50 is the concentration giving half of the maximal effect. What is called AC50 is the concentration at which the activity in the assay is half-maximal.

Consider `O=C(Nc1ccc(Cl)cc1)C1CCN(C(=O)c2cccs2)CC1`, for which the IC50 in [1] and in [2] was > 100 µM (inactive) in each case.

Consider `COc1ccccc1CCNC(=O)CSc1ccc(-c2ccco2)nn1`, for which the IC50 in [1] and in [2] was > 100 µM (inactive) in each case.

In the case of `Cc1oc(-c2cc(F)ccc2F)nc1CN1CCN(c2ncnc3ccccc23)CC1`, in the test on HEK293 [3], the EC50 is 4.42 µM (active). Besides, the IC50 in the test with HEK293 [4] was 11.1 µM (active); in the test with HEK293 [5] it was 19.9 µM (active); in the test with HEK293 [6] it was 8.53 µM (active); at Tumor necrosis factor, 5.97 µM (active); in [7], 6.29 µM (active); in the test with HEK293 [8] it was > 20 µM (inactive).

As for `CN(Cc1cccnc1)C(=O)c1cc(COc2ccc3ncccc3c2)on1`, the EC50 was 3.64 µM (active) in the test on HEK293 [3], > 350 µM (not active) in the test “cells [9]”, 9.78 µM (active) in test [10] and > 350 µM (not active) in “cells [12]”. For the same compound, the IC50 with HEK293 [4] was 6.23 µM (active); in the test on HEK293 [5] it was 17.3 µM (active); in the test with HEK293 [6], 8.18 µM (active); in the test with HEK293 [11], > 20 µM (inactive); on Tumor necrosis factor it was 5.24 µM (active); in [7], 2.92 µM (active). In addition, in the test on HEK293 [8], the IC50 is > 20 µM (inactive). Besides, the AC50 with INS1 is 3.92 µM (active).

For the compound `CCc1ccc(NC(=O)C(CC)Sc2nc3cc4c(cc3c(=O)n2Cc2ccco2)OCO4)cc1` (configuration not stated), on SUMO-activating enzyme, the IC50 was 48.9 µM (active). In test [13], the half-maximal activity concentration (AC50) was 8.32 µM (active).

In the case of `CC(=O)NS(=O)(=O)c1ccc(Nc2ccc([N+](=O)[O-])c3nonc23)cc1`, the IC50 in test [14] was 13.9 µM (active); in test [15] it was greater than 32 µM; at Protein skinhead-1, 34.7 µM (active). In addition, the EC50 on Beta-galactosidase was 18.1 µM (active).

For the compound `O=C(CSc1ncnc2c1oc1ccccc12)NCc1ccco1`, the EC50 in test [16] was 22.6 µM (inactive); in test [17], > 79.4 µM (not active); in test [18], 11.5 µM (not active).

Take `O=C(CSc1ncnc2c1oc1ccccc12)Nc1ccccc1F`: the EC50 in [16] is 63.3 µM (inactive); in test [17], 91.1 µM (not active); in test [18] it was 59.2 µM (not active).

Take `COc1ccccc1NC(=O)COC(=O)c1ccc(NC(N)=O)cc1`: the IC50 was 17.9 µM (active) in [1] and 69.4 µM (active) in test [2].

Turning to `C/C(=N\Nc1ncc(Cl)cc1Cl)c1ccccn1`, the values for the IC50 (in test [14]; in [15]; on Nonstructural protein 1) were 3.47 µM (active), greater than 32 µM and 12 µM (active), respectively. Besides, the values for the EC50 on Beta-galactosidase and with BJ were > 31.5 µM (inactive) and 0.0209 µM (active), respectively. In addition, the AC50 in [19] is 1.84 µM (active).

Turning to `Clc1cccc(-c2ccc(/C=N/c3ccc(N4CCOCC4)cc3)o2)c1Cl`, the EC50 was 49 µM (inactive) in [16], > 79.4 µM (not active) in test [17] and 30.5 µM (not active) in test [18]. Further, the IC50 in [20] is 14.5 µM (active).
